pKi: −log10 of the molar value.

The target in test [1] is T1, Adenosylhomocysteinase (Homo sapiens, UniProt P23526). The experiment in a line: Inactivation of human placental AdoHcy hydrolase.
Target sequence in this assay (P23526 2-432 limits assumed): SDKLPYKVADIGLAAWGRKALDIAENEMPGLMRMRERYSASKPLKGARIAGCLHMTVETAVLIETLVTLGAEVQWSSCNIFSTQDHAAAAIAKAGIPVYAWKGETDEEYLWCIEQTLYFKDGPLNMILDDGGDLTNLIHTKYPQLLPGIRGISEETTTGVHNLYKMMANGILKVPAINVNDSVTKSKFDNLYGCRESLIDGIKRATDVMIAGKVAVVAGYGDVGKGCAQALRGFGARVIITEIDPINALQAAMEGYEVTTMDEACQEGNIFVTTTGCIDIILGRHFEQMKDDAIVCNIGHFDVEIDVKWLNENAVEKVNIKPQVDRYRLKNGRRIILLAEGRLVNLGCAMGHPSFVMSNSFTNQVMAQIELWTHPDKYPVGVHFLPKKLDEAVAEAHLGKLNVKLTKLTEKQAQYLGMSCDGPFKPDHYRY
Test [2] deals with T1, Adenosylhomocysteinase. The experiment in a line: Inhibition of human placental AdoHcy hydrolase.
Target sequence in this assay (P23526 whole entry): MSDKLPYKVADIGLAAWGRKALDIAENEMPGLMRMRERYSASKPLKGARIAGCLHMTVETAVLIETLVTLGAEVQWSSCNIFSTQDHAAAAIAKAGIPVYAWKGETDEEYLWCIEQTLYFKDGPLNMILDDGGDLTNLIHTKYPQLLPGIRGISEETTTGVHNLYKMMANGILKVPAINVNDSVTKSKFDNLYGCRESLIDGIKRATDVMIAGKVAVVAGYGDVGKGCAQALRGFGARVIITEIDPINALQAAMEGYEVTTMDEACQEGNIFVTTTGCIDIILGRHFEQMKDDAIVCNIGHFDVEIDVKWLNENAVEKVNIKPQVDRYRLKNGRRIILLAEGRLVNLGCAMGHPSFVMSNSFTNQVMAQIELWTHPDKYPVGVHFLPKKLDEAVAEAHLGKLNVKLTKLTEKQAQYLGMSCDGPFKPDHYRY

`Nc1ncnc2c1ncn2C1O[C@H](CC(=O)OC2CC2(Cl)Cl)C(O)[C@H]1O` (single isomer, unassigned) returned a K inact on Adenosylhomocysteinase [1] of 0.09 min⁻¹. In addition, the pKi on Adenosylhomocysteinase [2] was 3.12.
Consider `Nc1ncnc2c1ncn2C1O[C@H](CC(=O)OCCCl)C(O)[C@H]1O` (single isomer, unassigned), for which the K inact at Adenosylhomocysteinase [1] was determined as 0.43 min⁻¹. This compound showed a pKi on Adenosylhomocysteinase [2] of 3.52.
In the same order, the values of `Nc1ncnc2c1ncn2C1O[C@H](CC(=O)OCCF)C(O)[C@H]1O` (single isomer, unassigned) are 0.19 min⁻¹ and 4.12.
The like results for `Nc1ncnc2c1ncn2C1O[C@H](CC(=O)OC2CC2(F)F)C(O)[C@H]1O` (single isomer, unassigned) were, in that order, 0.008 min⁻¹ and 4.77.

By pKi is commonly meant the Ki on a negative log10 scale, so that one unit is a factor of ten.

Values taken from ChEMBL document CHEMBL1137060, “Inactivation of S-adenosylhomocysteine hydrolase with haloethyl and dihalocyclopropyl esters derived from homoadenosine-6'-carboxylic acid” (Bioorg Med Chem Lett, 2004).
